Experimental data published in patent US20260125372A1, “DYNAMIN-1-LIKE PROTEIN INHIBITORS AND USES THEREOF” (Astellas Engineered Small Molecules US, Incorporated, priority 2022, published 2026).

target: T1, DRP1 (Homo sapiens, UniProt O00429); experiment: AlphaLISA assay (His-DRP1 / MiD49-GST interaction); format: binding; conditions: His-DRP1 200 nM, MiD49-GST 20 nM, GMP-PNP 100 uM
T1 construct: Human DRIP1 (UniProtID: O00429.4, residues 1-699); made in house; host or cells: Escherichia coli BL21 CodonPlus DE3
Protocol: Human DRIP1 (UniProtID: O00429.4, residues 1-699), and human MiD49 (UnitProtIS: Q96C03.1, residues 126-454) was cloned into a pET15b vector as an N-terminal His-tag Fusion. All constructs were transformed in Escherichia coli host strain BL21 CodonPlus DE3. Bacteria was grown in LB media with 100 μg/ml ampicillin and 34 μg/ml chloramphenicol in an orbital shaker at 37° C. until OD600 reached 0.4, at which temperature was reduced to 16° C. Recombinant protein expression was expressed for 18 hr by the addition of IPTG at OD600 of about 0.8. All cultures were spun down and bacterial pellets were used for protein purification.
For His-DRP1, the pellets were resuspended in DRP-buffer A (20 mM Tris, 500 KCl, 1.89 β-ME, pH 8.0) and protease inhibitor cocktail (Roche), followed by cell disruption by sonication (400 W, pulse 3 sec on, 3 sec off, total 20 min). The lysate was centrifuged at 20,000 g and then supernatant applied to a preequilibrated Ni-NTA column with DRP-buffer A. The column was extensively washed with buffer A containing 50 mM imidazole. Purified His-DRP1 was eluted with DRP-buffer A containing 250 mM imidazole and dialyzed overnight at 4° C. (18 kDa cutoff) against DRP-buffer A to remove imidazole. For AlphaLISA, the His tag was retained on DRP1 full-length.
For MiD49-GST, the bacterial pellets were resuspended and sonicated in MID lysis buffer (25 mM Tris-HCl, pH 7.5, 500 mM NaCl, 5% glycerol, 1 mM TCEP, and 0.5% CHAPS). The lysate was pre-cleared at 20,300 g before applying to a glutathione column. Unbound proteins were washed using MID-buffer A (25 mM Tris-HCl, pH 7.5, 300 mM NaCl, 5% glycerol, 1 mM TCEP) and MID-buffer B (25 mM Tris-HCl, pH 7.5, 300 mM NaCl, 5% glycerol, 1 mM TCEP, 1 mM GSH). The protein was eluted with MID-buffer C (25 mM Tris-HCl, pH 7.5, 300 mM NaCl, 5% glycerol, 1 mM TCEP, 10 mM GSH). The target protein was concentrated in the ultra-filtration tube with MW cutoff 30 kDa and further purified by size-exclusion chromatography on a Superdex-200 column (GE Healthcare) in buffer A. Fractions containing MiD49-GST (126-454) were pooled, concentrated, flash-frozen as single-use aliquots in liquid nitrogen and stored at −80° C.
A total of 100 nl of compounds were plated in a 384-well AlphaPlate (PerkinElmer, Waltham, MA) at concentrations 100 uM to […] in DMSO (dilution by 3.165 for 11 concentration levels). Recombinant His-DRP1 (200 nM), MiD49-GST (20 nM), and GMP-PNP (100 uM) were mixed in assay buffer (PBS with 1.5% BSA, 1 mM DTT). Five microliters of the protein mixture were added to the plate and incubate at room temperature for 30 min. Glutathione donor beads and nickel chelate acceptor beads were diluted and mixed in assay buffer to obtain 40 μg/ml of each bead. Five microliters of the mixed beads were added to each well on the microplate leading to a final bead concentration of 20 µg/ml per well. The sealed plate was incubated at room temperature for 60 min and protected from light. The AlphaLISA signal was detected with an EnVision Multilabel Reader (excitation at 680 and emission 615 nm). GraphPad Prism was used to calculate the IC50 by applying sigmoidal dose-response fit (variable slope).

T1 sequence (O00429 1-699 isoform O00429-4): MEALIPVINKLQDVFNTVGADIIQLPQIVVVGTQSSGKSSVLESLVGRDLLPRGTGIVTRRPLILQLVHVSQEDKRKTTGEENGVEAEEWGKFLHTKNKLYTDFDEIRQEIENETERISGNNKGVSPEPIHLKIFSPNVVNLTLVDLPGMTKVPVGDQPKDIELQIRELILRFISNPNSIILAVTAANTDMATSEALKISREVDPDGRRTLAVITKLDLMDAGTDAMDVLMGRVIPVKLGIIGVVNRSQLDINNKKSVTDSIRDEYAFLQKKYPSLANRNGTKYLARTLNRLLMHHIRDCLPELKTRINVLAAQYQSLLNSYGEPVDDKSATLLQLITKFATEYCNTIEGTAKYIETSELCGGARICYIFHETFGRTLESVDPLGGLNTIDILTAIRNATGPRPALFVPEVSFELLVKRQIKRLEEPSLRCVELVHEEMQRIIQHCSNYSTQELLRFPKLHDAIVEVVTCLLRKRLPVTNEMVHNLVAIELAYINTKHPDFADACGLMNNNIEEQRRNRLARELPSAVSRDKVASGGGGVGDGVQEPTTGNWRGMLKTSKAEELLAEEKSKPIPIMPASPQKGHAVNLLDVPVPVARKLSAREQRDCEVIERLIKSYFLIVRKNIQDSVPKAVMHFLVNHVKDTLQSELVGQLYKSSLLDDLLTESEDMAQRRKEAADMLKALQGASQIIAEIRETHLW

Row | IC50 | SMILES
1 | 1 to 10 µM | O=C(Nc1ccc2nc(-n3ccnc3)cc(OCCO)c2c1)C1COC1 [Example 42, N-(4-(2-hydroxyethoxy)-2-(1H-imidazol-1-yl)quinolin-6-yl)oxetane-3-carboxamide]
2 | 1 to 10 µM | Cc1cn(-c2cc(OC3CC3)c3cc(NC(=O)C4COC4)ccc3n2)cn1 [Example 43, N-(4-cyclopropoxy-2-(4-methyl-1H-imidazol-1-yl)quinolin-6-yl)oxetane-3-carboxamide]
3 | 0.5 to 1 µM | CCOc1cc(-n2cnc(Cl)c2)nc2ccc(NC(=O)C3COC3)cc12 [Example 44, N-(2-(4-chloro-1H-imidazol-1-yl)-4-ethoxyquinolin-6-yl)oxetane-3-carboxamide]
4 | 1 to 10 µM | CCOc1cc(-n2cnnc2)nc2ccc(NC(=O)C3COC3)cc12 [Example 45, N-(4-ethoxy-2-(4H-1,2,4-triazol-4-yl)quinolin-6-yl)oxetane-3-carboxamide]
5 | 1 to 10 µM | CCOc1cc(-n2cnc(C#N)c2)nc2ccc(NC(=O)C3COC3)cc12 [Example 46, N-(2-(4-cyano-1H-imidazol-1-yl)-4-ethoxyquinolin-6-yl)oxetane-3-carboxamide]
6 | > 10 µM | CCOc1cc(-n2cnc(C(C)(C)C)c2)nc2ccc(NC(=O)C3COC3)cc12 [Example 47, N-(2-(4-(tert-butyl)-1H-imidazol-1-yl)-4-ethoxyquinolin-6-yl)oxetane-3-carboxamide]
7 | 0.5 to 1 µM | COC[C@H](C)Oc1cc(-c2cncs2)nc2ccc(NC(=O)C(C)C#N)cc12 (stereo partly drawn) [Example 48, 2-cyano-N-(4-(((S)-1-methoxypropan-2-yl)oxy)-2-(thiazol-5-yl)quinolin-6-yl)propanamide]

More lines, now with the values behind:

Row | SMILES | IC50
8 | COCCOc1cc(-c2cncs2)nc2ccc(NC(=O)[C@H]3C[C@@H](OC)C3)cc12 [Example 33, cis-3-methoxy-N-(4-(2-methoxyethoxy)-2-(thiazol-5-yl)quinolin-6-yl)cyclobutane-1-carboxamide] | < 0.5 µM
9 | COCCOc1cc(-c2cncs2)nc2ccc(NC(=O)[C@H]3C[C@H](OC)C3)cc12 [Example 34, trans-3-methoxy-N-(4-(2-methoxyethoxy)-2-(thiazol-5-yl)quinolin-6-yl)cyclobutane-1-carboxamide] | > 10 µM
10 | COCCOc1cc(-c2cncs2)nc2ccc(NC(=O)c3cnoc3)cc12 [Example 35, N-(4-(2-methoxyethoxy)-2-(thiazol-5-yl)quinolin-6-yl)isoxazole-4-carboxamide] | 0.5 to 1 µM
11 | COCCOc1cc(-c2cncs2)nc2ccc(NC(=O)[C@H](C)OC)cc12 [Example 36, (S)-2-methoxy-N-(4-(2-methoxyethoxy)-2-(thiazol-5-yl)quinolin-6-yl)propanamide] | < 0.5 µM
12 | COCCOc1cc(-c2cncs2)nc2ccc(NC(=O)[C@@H](C)OC)cc12 [Example 37, (R)-2-methoxy-N-(4-(2-methoxyethoxy)-2-(thiazol-5-yl)quinolin-6-yl)propanamide] | < 0.5 µM
13 | COCC(C)Oc1cc(-c2cncs2)nc2ccc(NC(=O)C3COC3)cc12 (stereo not shown) [Example 38, N-(4-((1-methoxypropan-2-yl)oxy)-2-(thiazol-5-yl)quinolin-6-yl)oxetane-3-carboxamide] | < 0.5 µM
14 | COCC(C)(C)Oc1cc(-c2cncs2)nc2ccc(NC(=O)C3COC3)cc12 [Example 39, N-(4-((1-methoxy-2-methylpropan-2-yl)oxy)-2-(thiazol-5-yl)quinolin-6-yl)oxetane-3-carboxamide] | 1 to 10 µM
15 | COCCOc1cc(-n2cnc(C3CC3)c2)nc2ccc(NC(=O)C3COC3)cc12 [Example 40, N-(2-(4-cyclopropyl-1H-imidazol-1-yl)-4-(2-methoxyethoxy)quinolin-6-yl)oxetane-3-carboxamide] | < 0.5 µM
16 | COCCOc1cc(-n2cnc(C)c2)nc2ccc(NC(=O)C3COC3)cc12 [Example 41, N-(4-(2-methoxyethoxy)-2-(4-methyl-1H-imidazol-1-yl)quinolin-6-yl)oxetane-3-carboxamide] | < 0.5 µM
